Here are results for twelve compounds from patent US12600728B2, “Interleukin-17 inhibitors” (priority 2020, dated 2026).

Where two headings read alike, the source gives them in different places.

Test [1] deals with biotinylated human IL-17A / AF647-labeled human IL-17RA (Homo sapiens, UniProt Q16552). As to the kind of experiment: Human IL-17A×IL-17RA TR-FRET assay. In kind it is binding. On the procedure:
Human IL-17A×IL-17RA TR-FRET Assay
Each compound concentration is tested in duplicate.
The final total assay volume is 10 μL.
Each plate contains test compounds in columns 1-22 and controls in columns 23 and 24. The neutral control (NC) contains all the assay components, but DMSO instead of test compound. […] The fluorescence values for emission at 615 nm and 665 nm are loaded to the evaluation software Helios.
From the activity data at each compound concentration, the IC50 values are obtained using the 4-parameter logistic function (“Hill-slope model”) of Helios.

Test [2] deals with recombinant human IL-17AA (Homo sapiens, UniProt Q16552). As to the kind of experiment: IL-6 release from NHDF cells, IL-17AA plus TNF-α stimulation. In kind it is cell-based. Conditions: 24 hours, IL-6 by ELISA. How it is done: IL-6 Release from NHDF Cells (Normal Human Dermal Fibroblasts)
NHDF cells isolated from normal adult mesoderm, connective tissues were cultured in fibroblast growth medium containing 2% supplement. […] The cells were allowed to adhere overnight before they were incubated with the compound/cytokine cocktail.
Diluted compounds were pre-incubated with recombinant human IL-17AA or IL-17AF plus human TNF-α for 30 minutes at room temperature on a shaker. […] The cells were incubated with the compound/cytokines cocktail for 24 hours at 37° C. (5% CO2). […] The final DMSO or plasma concentrations were 0.1% or 20%, respectively. All compound incubations were done in duplicate. The supernatants were collected to quantify IL-6 by ELISA according to the manufacturers instructions. The optical density was measured at 450 nm by an EnVision Multilabel Plate Reader (Perkin Elmer). The IL-6 levels produced after TNF-α stimulation were subtracted from the IL-6 produced after IL-17/TNF-α co-stimulation. These IL-17-specific IL-6 concentrations were used for […] value calculation.
In general terms: In an ELISA, binding on a coated surface is turned into a signal by an enzyme label.

Where [3] appears, read: TR-FRET, biotinylated human IL-17A 5 nM, AF647-labeled human IL-17RA 30 nM, read-out: IL17AA FRET/ IL17Rawt IC50.
Setting [4] is: NHDF cells, IL-17AA 30 pM plus TNF-α 6 pM, read-out: IL17AA + TNF IC50 IL-6.
Where [5] appears, read: IL17AA FRET/ IL17Rawt IC50, TR-FRET, biotinylated human IL-17A 5 nM, AF647-labeled human IL-17RA 30 nM.
[6] abbreviates: IL17AA + TNF IC50 IL-6, NHDF cells, IL-17AA 30 pM plus TNF-α 6 pM.
Setting [7] is: TR-FRET, 5 nM IL-17A, 30 nM IL-17RA, read-out: IL17AA FRET/ IL17Rawt IC50.
The mark [8] stands for this setting: NHDF cells, IL-17AA 30 pM + TNF-α 6 pM, read-out: IL17AA + TNF IC50 IL-6.

Sequence of biotinylated human IL-17A / AF647-labeled human IL-17RA (Q16552 24-155): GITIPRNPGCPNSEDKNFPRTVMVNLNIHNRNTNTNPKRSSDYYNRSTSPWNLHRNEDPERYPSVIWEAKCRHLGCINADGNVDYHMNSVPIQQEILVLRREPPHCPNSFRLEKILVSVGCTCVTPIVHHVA
Sequence of recombinant human IL-17AA (Q16552 24-155): as above

Regarding `CCc1nocc1C(=O)N[C@H](C(=O)Nc1ccc(-c2c(C)cc[n+]([O-])c2C)cc1)C1CCC(F)(F)C1` (mixture of isomers) [Example 86, 3-(4-((2S)-2-(3,3-difluorocyclopentyl)-2-(3-ethylisoxazole-4-carboxamido)acetamido)phenyl)-2,4-dimethylpyridine 1-oxide], the IC50 in test [1] (setting [3]) worked out at 119 nM; in test [2] (setting [4]), 232 nM.
The corresponding values for `Cc1c(-c2ccc(NC(=O)[C@@H](NC(=O)c3ccnn3C)C3CCCCC3)cc2F)c(Cl)cc[n+]1[O-]` (single isomer, unassigned) [Example 2a] are 49 nM and 37 nM.
In the same order, the values of `Cc1c(-c2ccc(NC(=O)[C@@H](NC(=O)c3ccnn3C)C3CCCCC3)cc2F)c(Cl)cc[n+]1[O-]` (single isomer, unassigned) [Example 2b] are 17 nM and 14 nM.
The corresponding values for `Cc1cc[n+]([O-])c(C)c1-c1ccc(NC(=O)[C@@H](NC(=O)c2ccnn2C)[C@H]2CC=C(F)CC2)cc1` (single isomer, unassigned) [Example 12a, 3-(4-((S)-2-((R)-4-fluorocyclohex-3-en-1-yl)-2-(1-methyl-1H-pyrazole-5-carboxamido)acetamido)phenyl)-2,4-dimethylpyridine 1-oxide or 3-(4-((S)-2-((S)-4-fluorocyclohex-3-en-1-yl)-2-(1-methyl-1H-pyrazole-5-carboxamido)acetamido)phenyl)-2,4-dimethylpyridine 1-oxide] are 112 nM and 17 nM.
For `Cc1cc[n+]([O-])c(C)c1-c1ccc(NC(=O)[C@@H](NC(=O)c2ccnn2C)[C@H]2CC=C(F)CC2)cc1` (single isomer, unassigned) [Example 12b, 3-(4-((S)-2-((R)-4-fluorocyclohex-3-en-1-yl)-2-(1-methyl-1H-pyrazole-5-carboxamido)acetamido)phenyl)-2,4-dimethylpyridine 1-oxide or 3-(4-((S)-2-((S)-4-fluorocyclohex-3-en-1-yl)-2-(1-methyl-1H-pyrazole-5-carboxamido)acetamido)phenyl)-2,4-dimethylpyridine 1-oxide], the IC50 in test [1] (setting [3]) turned out to be 151 nM; in test [2] (setting [4]) it was 8 nM.
The corresponding values for `CCn1nccc1C(=O)N[C@H](C(=O)Nc1ccc(-c2c(Cl)cc[n+]([O-])c2C)cc1)C1CCC(F)(F)CC1` (single isomer, unassigned) [Example 13a] are 16 nM and 11 nM.
For `Cc1c(-c2ccc(NC(=O)C(NC(=O)c3ccnn3C)C3CC4C(C3)C4(F)F)cc2)c(Cl)cc[n+]1[O-]` (single isomer, unassigned) [Example 54a], the IC50 in test [1] (setting [5]) is 28 nM; in test [2] (setting [6]), 34 nM.
The corresponding values for `CCn1nccc1C(=O)NC(C(=O)Nc1ccc(-c2c(C(F)(F)F)cc[n+]([O-])c2C)cc1)C1CC2CC2C1` (single isomer, unassigned) [Example 64] are 74 nM and 25 nM.
In the case of `CCn1nccc1C(=O)NC(C(=O)Nc1ccc(-c2c(Cl)cc[n+]([O-])c2C)cc1)C1CC2CC2C1` (single isomer, unassigned) [Example 145], the IC50 stood at 24 nM in test [1] (setting [7]) and 23.5 nM in test [2] (setting [8]).
The corresponding values for `Cc1nocc1C(=O)NC(C(=O)Nc1ccc(-c2c(Cl)cc[n+]([O-])c2C)cc1)C1CC2CC2C1` (single isomer, unassigned) [Example 181] are 54.8 nM and 64 nM.
As for `Cc1cc[n+]([O-])c(C)c1-c1ccc(NC(=O)C(NC(=O)c2ccc3n2CCN(C)C3)C2CC3CC3C2)cc1` (single isomer, unassigned) [Example 192], the IC50 is 151 nM in test [1] (setting [7]) and 142 nM in test [2] (setting [8]).
With `Cc1nocc1C(=O)NC(C(=O)Nc1ccc(-c2c(Cl)cc[n+]([O-])c2C)cc1)C1CC2CC2C1` (single isomer, unassigned) [Example 198], the IC50 in test [1] (setting [7]) was found to be 222 nM; in test [2] (setting [8]) it was 94 nM.
